Measurements published in ChEMBL document CHEMBL1144266, “Synthesis and biological evaluation of 3-benzyl-1-methyl- and 1-methyl-3-phenyl-isothioureas as potential inhibitors of iNOS” (2005).

Legend:
Format in all cases: functional, Mus musculus
J774.A1 [1] = test: Percent inhibition of nitrite release in lipopolysaccharide (LPS) treated J774.A1 macrophage cell lines at concentration of 1E-5M
J774.A1 [2] = test: Percent inhibition of nitrite release in lipopolysaccharide (LPS) treated J774.A1 macrophage cell lines at concentration of 1E-6M
J774.A1 [3] = test: Percent inhibition of nitrite release in lipopolysaccharide (LPS) treated J774.A1 macrophage cell lines at concentration of 1E-3 M
J774.A1 [4] = test: Percent inhibition of nitrite release in lipopolysaccharide (LPS) treated J774.A1 macrophage cell lines at concentration of 1E-8M
J774.A1 [5] = test: Percent inhibition of nitrite release in lipopolysaccharide (LPS) treated J774.A1 macrophage cell lines at concentration of 1E-7M

| SMILES | Inhibition (J774.A1 [1]) | Inhibition (J774.A1 [2]) | Inhibition (J774.A1 [3]) | Inhibition (J774.A1 [4]) | Inhibition (J774.A1 [5]) |
| --- | --- | --- | --- | --- | --- |
| CN/C(=N\c1cccc(F)c1)SC | 9.34% | 5.23% | 66.9% | – | – |
| CCCS/C(=N\C)Nc1ccc(Cl)cc1 | 5.08% | 1.1% | 50.04% | – | – |
| C/N=C(/Nc1ccc(Cl)cc1)SC(C)C | 7.09% | 8.21% | 48.09% | – | – |
| CN/C(=N\c1cccc(C)c1)SC | 15.34% | 7.03% | 75% | – | – |
| CCS/C(=N\C)Nc1cccc(C)c1 | 14.02% | 6.79% | 81.03% | – | – |
| CCCS/C(=N\C)Nc1ccccc1 | 15.7% | 4.65% | 65.78% | – | – |
| CCS/C(=N\C)Nc1ccccc1F | 9.76% | 3.02% | 40.01% | – | – |
| CCS/C(=N\C)Nc1cccc(Cl)c1 | 11.56% | 3.44% | 41.56% | – | – |
| CCCS/C(=N\C)Nc1ccccc1F | 11.26% | 4.15% | 65.61% | – | – |
| CCCS/C(=N\C)Nc1ccc(C)cc1 | 2.08% | 1.54% | 83.42% | – | – |
| CCS/C(=N\C)Nc1ccccc1Cl | 10.21% | 2.9% | 19.55% | – | – |
| CN/C(=N\c1ccccc1)SC | 8.65% | 5.1% | 65% | – | – |
| CCCS/C(=N\C)Nc1ccc(F)cc1 | 10.67% | 4% | 53.45% | – | – |
| C/N=C(/Nc1ccc(F)cc1)SC(C)C | 9.03% | 4.76% | 61.45% | – | – |
| CN/C(=N\c1ccc(C)cc1)SC | 18.1% | 4.67% | 67.8% | – | – |
| CCS/C(=N\C)Nc1ccc(C)cc1 | 0% | 0% | 56.82% | – | – |
| C/N=C(/Nc1ccccc1C)SC(C)C | 18.78% | 13.56% | 85.21% | – | – |
| CN/C(=N\c1cccc(Cl)c1)SC | 12.33% | 4.06% | 45.38% | – | – |
| CCS/C(=N\C)Nc1ccccc1 | 2.67% | 1.67% | 76.76% | – | – |
| CCS/C(=N\C)NCc1ccccc1 | -26.84% | -23.65% | – | -7.28% | -2.41% |
| C/N=C(/Nc1cccc(Cl)c1)SC(C)C | 8% | 7.09% | 46.9% | – | – |
| CN/C(=N\c1ccccc1C)SC | 17.45% | 8.32% | 75.1% | – | – |

| SMILES | Inhibition (J774.A1 [1]) | Inhibition (J774.A1 [2]) | Inhibition (J774.A1 [3]) | Inhibition (J774.A1 [4]) | Inhibition (J774.A1 [5]) |
| --- | --- | --- | --- | --- | --- |
| C/N=C(/Nc1cccc(F)c1)SC(C)C | 10.04% | 4.23% | 66.98% | – | – |
| CCCS/C(=N\C)Nc1cccc(C)c1 | 12.09% | 8.31% | 78.34% | – | – |
| CN/C(=N\c1ccccc1F)SC | 6.01% | 1.56% | 52.45% | – | – |
| CCCS/C(=N\C)Nc1cccc(Cl)c1 | 9.34% | 5.01% | 58.45% | – | – |
| C/N=C(/Nc1cccc(C)c1)SC(C)C | 18.55% | 19.89% | 68.77% | – | – |
| CCS/C(=N\C)Nc1ccccc1C | 15.33% | 7.44% | 65.21% | – | – |
| CCCS/C(=N\C)Nc1ccccc1C | 11.45% | 8.12% | 81.01% | – | – |
| C/N=C(/Nc1ccccc1Cl)SC(C)C | 8.69% | 3.21% | 16.21% | – | – |
| CCCS/C(=N\C)NCc1ccccc1 | -39.58% | -33.71% | – | -7.96% | -31.36% |
| CCCS/C(=N\C)Nc1ccccc1Cl | 9.55% | 1.1% | 11.45% | – | – |
| C/N=C(/Nc1ccccc1F)SC(C)C | 9.91% | 2.76% | 67.71% | – | – |
| C/N=C(/Nc1ccccc1)SC(C)C | 19.75% | 13.21% | 81.5% | – | – |
| CN/C(=N/Cc1ccccc1)SC | -54.53% | -9.54% | – | -2.65% | -5.96% |
| C/N=C(/Nc1ccc(C)cc1)SC(C)C | 28.11% | 39.8% | 73.14% | – | – |
| CCS/C(=N\C)Nc1ccc(F)cc1 | 9.45% | 5.98% | 60.56% | – | – |
| CN/C(=N\c1ccc(Cl)cc1)SC | 7.55% | 2.9% | 69.05% | – | – |
| CCCS/C(=N\C)Nc1cccc(F)c1 | 11.11% | 7% | 53.91% | – | – |
| CN/C(=N\c1ccccc1Cl)SC | 4.67% | 2.9% | 21.32% | – | – |
| CCS/C(=N\C)Nc1ccc(Cl)cc1 | 10.45% | 0.5% | 54.05% | – | – |
| CCS/C(=N\C)Nc1cccc(F)c1 | 10.21% | 6.23% | 59.45% | – | – |
| COC(=O)[C@@H](N)CCCNC(=N)N[N+](=O)[O-] [L-NAME] | 20.37% | 12.8% | 69.49% | – | – |
